The text below walks through data of patent US20220370470A1 (WisTa Laboratories Ltd., priority 2019, published 2022).

Structures can show the parent of a compound that is named as a salt.

Test [1] has as its system acetylcholine (ACh) levels in hippocampus. The experiment in a line: ACh levels in hippocampus, microdialysis probe and HPLC, wild-type mice. The class given is in vivo. On the procedure: For measurement of acetylcholine (ACh) levels in hippocampus, animals (wild-type or L1) were treated with LMTM (5 mg/kg/day for 2 weeks) after prior treatment for 2 weeks with or without rivastigmine (0.5 mg/kg/day). Rivastigmine was administered subcutaneously with an Alzet minipump whereas LMTM was administered by oral gavage. Levels of ACh were measured in hippocampus using an implanted microdialysis probe and HPLC analysis of the extracellular fluid.
Data are presented as group averages and standard errors of mean and were analysed using parametric statistics, with alpha set to 0.05.

Test [2] has as its system SNARE complex proteins (SNAP25, syntaxin and VAMP2). The test can be described thus: Immunohistochemistry of SNARE complex proteins, wild-type mice. On the set-up: key: ‘—’ indicates no effect. The following applies: LMTM 5 or 15 mg/kg/day alone or following chronic rivastigmine 0.1 or 0.5 mg/kg/day, approximate rounded percentages. The format is in vivo. As for the experimental part:
(§1) Wild-type and L1 mice (n=7-16 for each group) were pre-treated with rivastigmine (0.1 or 0.5 mg/kg/day) or memantine (2 or 20 mg/kg/day) or vehicle for 5 weeks by gavage. For the following 6 weeks, LMTM (5 and 15 mg/kg) or vehicle were added to this daily treatment regime, also by gavage. Animals were tested behaviourly during weeks 10 and 11 using a problem solving task in the open field water maze and then sacrificed for immunohistochemical and other tissue analyses.
(§2) Translating doses from mice to humans requires consideration of a number of factors. […] The higher dose of 15 mg/kg/day is generally required for LMTM to be fully effective in the L1 mouse model (Melis et al., 2015a). […] Tissue sectioned for immunohistochemistry was labelled with antibody and processed using Image J to determine protein expression densitometrically. Data are presented as Z-score transformations without units.

Test [3] relates to synaptophysin. The test can be described thus: Immunohistochemistry of synaptophysin, wild-type mice. The class given is in vivo. On the procedure: FIG. 1. Treatment effects of LMTM alone or following chronic pretreatment with rivastigmine in wild-type mice on hippocampal levels of acetylcholine (A) or synaptophysin levels measured immunohistochemically as the mean in hippocampus, visual cortex, diagonal band and septum (B). (**, p<0.01; ***, p<0.001).
as §1, §2

Test [4] has as its system α-synuclein. The test can be described thus: Immunohistochemistry of α-synuclein, wild-type mice. The class given is in vivo. On the set-up: key: ‘—’ indicates no effect. Conditions: LMTM 5 or 15 mg/kg/day alone or following chronic rivastigmine 0.1 or 0.5 mg/kg/day, approximate rounded percentages. As for the experimental part: as §1, §2
Test [5] relates to mitochondrial complex IV. The test can be described thus: Mitochondrial complex IV activity, wild-type mice. The format is in vivo. Conditions: LMTM 5 or 15 mg/kg/day alone or following chronic rivastigmine 0.1 or 0.5 mg/kg/day, approximate rounded percentages. As for the experimental part:
as §1

The subject of test [6] is wild-type mice. The experiment in a line: Behaviour, problem solving task in the open field water maze, wild-type mice. Conditions: LMTM 5 or 15 mg/kg/day alone or following chronic rivastigmine 0.1 or 0.5 mg/kg/day, approximate rounded percentages. The class given is in vivo. On the procedure:
as §1

The test system of test [7] is ACh levels in the hippocampus. The experiment in a line: Hippocampal ACh levels with scopolamine blocking M2/M4 negative feedback receptors. The format is in vivo, wild type mice.

Take `CN(C)c1ccc2c(c1)Sc1cc(N(C)C)ccc1N2` [LMTM, hydromethylthionine mesylate]: the “reduction in basal ACh levels in hippocampus” value in test [1] (LMTM after prior treatment with rivastigmine (0.5 mg/kg/day)) was determined as 30%. In addition, in test [1] (LMTM treatment alone (5 mg/kg/day for 2 weeks), significant), the “increase in basal ACh levels in hippocampus” value is listed as 2 fold. In addition, the SNARE complex entry in test [2] is given as “—”. In addition, the “change in mean synaptophysin levels” value in test [3] (LMTM given against a background of prior treatment with rivastigmine) is “statistically significant reduction of the same magnitude”. Also, the “increase in mean synaptophysin levels” value in test [3] (hippocampus, visual cortex, diagonal band and septum, LMTM treatment alone) was 3 fold. In addition, the α-Synuclein entry in test [4] is on record as “—”. The “Mitochondrial complex IV” value in test [5] is “did not show any increase and —”. In addition, the Behaviour result in test [6] is “not associated with improvement in spatial recognition memory and —”. In addition, the “increase in ACh levels in scopolamine experiments” value in test [7] (wild type mice, scopolamine blocking M2/M4 negative feedback receptors, 100 nanomolar rivastigmine in perfusion fluid) was “less than that seen with rivastigmine alone”.

As for `CN1[C@@H]2C[C@@H](OC(=O)[C@H](CO)c3ccccc3)C[C@H]1[C@@H]1O[C@@H]12` [scopolamine, reference compound], the “rise in ACh levels” value in test [7] (hippocampus, scopolamine 1 μM added to the perfusion fluid containing 100 nanomolar rivastigmine) is listed as 3-5 fold.
